Source: PMC10975593 (ACS Omega, 2024)
Read-outs that look alike come from different tables or passages of the source.

How the values were obtained:
AKT3 (PKB γ) = AKT3 (PKB γ) (Homo sapiens, UniProt Q9Y243); test: Kinase selectivity for OMS14; format: biochemical
PDK1 Direct = biological target: T1, PDK1 Direct (Homo sapiens, UniProt O15530); test: Kinase selectivity for OMS14; format: biochemical
T1 sequence (O15530 1-556): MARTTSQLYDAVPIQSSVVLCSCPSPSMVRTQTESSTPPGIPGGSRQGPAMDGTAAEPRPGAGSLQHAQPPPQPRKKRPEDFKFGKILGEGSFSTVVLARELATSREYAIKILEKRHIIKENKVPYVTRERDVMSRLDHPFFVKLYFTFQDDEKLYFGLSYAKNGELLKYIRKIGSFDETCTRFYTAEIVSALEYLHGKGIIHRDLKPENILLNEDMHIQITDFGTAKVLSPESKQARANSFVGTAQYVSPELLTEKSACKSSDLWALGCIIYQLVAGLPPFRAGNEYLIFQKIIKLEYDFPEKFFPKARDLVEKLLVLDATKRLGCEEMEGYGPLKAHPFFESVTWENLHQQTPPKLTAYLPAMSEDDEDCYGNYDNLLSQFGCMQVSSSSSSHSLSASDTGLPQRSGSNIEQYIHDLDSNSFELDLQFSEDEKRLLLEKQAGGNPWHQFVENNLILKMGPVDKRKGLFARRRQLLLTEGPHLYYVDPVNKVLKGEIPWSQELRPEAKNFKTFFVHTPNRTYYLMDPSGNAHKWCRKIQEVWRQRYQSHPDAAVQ

[1] = read-out: % of inhibition (mean)
[2] = read-out: % of inhibition, point 1
[3] = read-out: % of inhibition, point 2

Chain of AKT3 (PKB γ) (Q9Y243 whole entry): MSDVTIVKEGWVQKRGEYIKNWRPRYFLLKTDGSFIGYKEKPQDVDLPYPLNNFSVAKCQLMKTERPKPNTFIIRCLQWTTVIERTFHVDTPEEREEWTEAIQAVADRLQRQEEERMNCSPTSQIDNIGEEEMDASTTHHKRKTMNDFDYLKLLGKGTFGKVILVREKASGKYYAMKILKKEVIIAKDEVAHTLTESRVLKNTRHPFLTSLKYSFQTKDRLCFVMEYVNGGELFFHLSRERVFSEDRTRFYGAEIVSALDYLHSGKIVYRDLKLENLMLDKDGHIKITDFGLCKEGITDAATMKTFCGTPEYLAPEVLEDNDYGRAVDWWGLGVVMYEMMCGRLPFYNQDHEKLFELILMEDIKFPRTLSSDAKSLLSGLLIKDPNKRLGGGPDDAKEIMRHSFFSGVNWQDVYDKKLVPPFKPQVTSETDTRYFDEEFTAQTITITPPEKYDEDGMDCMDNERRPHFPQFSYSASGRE

O=C(CN1CCN(CC(=O)Nc2nc3ccccc3s2)CC1)Nc1ccc([N+](=O)[O-])cc1 [OMS14, N-(benzo[d]thiazol-2-yl)-2-(4-(2-((4-nitrophenyl)amino)-2-oxoethyl)piperazin-1-yl)acetamide]
inhibition at 100 µM (AKT3 (PKB γ); [1]): 28%
inhibition at 100 µM (AKT3 (PKB γ); [2]): 27%
inhibition at 100 µM (AKT3 (PKB γ); [3]): 29%
inhibition at 100 µM (PDK1 Direct; [1]): -7%
inhibition at 100 µM (PDK1 Direct; [2]): -6%
inhibition at 100 µM (PDK1 Direct; [3]): -8%
